Data as given in US20200155575A1, “PHARMACEUTICAL COMPOSITION AND METHODS” (priority 2014, published 2020).

Test: Solubility in pharmaceutically acceptable carriers/excipients
Type: physicochemical
Procedure: The solubility of (8R,9S,10R,13S,14S,17S)-10,13-dimethyl-3-oxo-1,2,6,7,8,9,11,12,14,15,16,17-dodecahydrocyclopenta[a]phenanthren-17-yl tridecanoate was determined in the solvents (typical pharmaceutical carriers) listed below.

CCCCCCCCCCCCC(=O)O[C@H]1CC[C@H]2[C@@H]3CCC4=CC(=O)CC[C@]4(C)[C@H]3CC[C@]12C [testosterone tridecanoate, (8R,9S,10R,13S,14S,17S)-10,13-dimethyl-3-oxo-1,2,6,7,8,9,11,12,14,15,16,17-dodecahydrocyclopenta[a]phenanthren-17-yl tridecanoate]
Solubility mg/g at ~20-23° C. (solvent Benzyl Alcohol): 322 mg/g
Solubility mg/g at ~20-23° C. (solvent Benzyl Benzoate): 223 mg/g
Solubility mg/g at ~20-23° C. (solvent Castor Oil): 55 mg/g
Solubility mg/g at ~20-23° C. (solvent Corn glycerides -Maisine): 77 mg/g
Solubility mg/g at ~20-23° C. (solvent Corn oil): 35 mg/g
Solubility mg/g at ~20-23° C. (solvent Cremophor RH40): 10 mg/g
Solubility mg/g at ~20-23° C. (solvent Ethanol): 27 mg/g
Solubility mg/g at ~20-23° C. (solvent Fatty Acid -Oleic acid): 114 mg/g
Solubility mg/g at ~20-23° C. (solvent Medium chain glycerides-Capmul): 68 mg/g
Solubility mg/g at ~20-23° C. (solvent Olive Oil): 38 mg/g
Solubility mg/g at ~20-23° C. (solvent Peppermint Oil): ~200 mg/g
